Measurements reported in patent EP2468303A1, “Functionalized nucleic acids and particles comprising them for the treatment of HIV infections” (priority 2010, dated 2012).

Test system: pNL4.3 virus
Assay: Time-of-addition experiment in single-round infection assay
Format: cell-based, HIV-1
Conditions: Hela P4 cells, 100 nM, whatever the time of addition post-infection
Text: Antiviral activity was quantified using the above-described CPRG assay.

**Q.** How did the viral replication blocked turn out when `Cc1nnc(C(=O)NC(C)(C)c2nc(C(=O)NCc3ccc(F)cc3)c(O)c(=O)n2C)o1` [raltegravir] was run?
**A.** < 100%
